We go through 12 compounds from US8846933B2, “N-link hydroxamic acid derivatives useful as antibacterial agents” (Pfizer Inc., priority 2009, dated 2014).

The structures appear in SMILES notation.

In assay [1] the test system is Pseudomonas aeruginosa UI-18: Wild-type (PA-7). Briefly: MIC determination (CLSI), strain PA-7. It is filed as cell-based. The settings on record: strain PA-7; generated in the same manner as in Table 4; unit assumed. The gist of the method: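 Strain tested was P. aeruginosa UI-18, a wild-type isolate labelled PA-7. Minimum inhibitory concentrations followed CLSI dilution methodology for aerobically growing bacteria (M7-A7, M100-S18).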

In assay [2] the test system is Escherichia coli EC-1: VOGEL, mouse virulent. In words: MIC determination (CLSI), strain EC-1. It is filed as cell-based. The settings on record: strain EC-1; generated in the same manner as in Table 4; unit assumed. The gist of the method: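 The mouse-virulent VOGEL isolate of E. coli, EC-1, served as test organism. Minimum inhibitory concentration was measured by CLSI dilution methodology (M7-A7; M100-S18 standards).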

For `CC(CCn1ccc(-c2cccc(F)c2F)cc1=O)(C(=O)NO)S(C)(=O)=O` (stereo not drawn) [Example 147, 4-[4-(2,3-difluorophenyl)-2-oxopyridin-1(2H)-yl]-N-hydroxy-2-methyl-2-(methylsulfonyl)butanamide], the PA-7 (MIC) in assay [1] was found to be 1 µg/mL. In addition, in assay [2], the EC-1 (MIC) amounted to 2 µg/mL.
`CN(C)S(=O)(=O)c1cccc(-c2ccn(CCC(C)(C(=O)NO)S(C)(=O)=O)c(=O)c2)c1` (stereo not drawn) [Example 148, 4-[4-{3-[(dimethylamino)sulfonyl]phenyl}-2-oxopyridin-1(2H)-yl]-N-hydroxy-2-methyl-2-(methylsulfonyl)butanamide]: in assay [1], the PA-7 (MIC) is more than 64 µg/mL. Besides, the EC-1 (MIC) in assay [2] is 64 µg/mL.
With `CC(CCn1ccc(-c2ccc(C#N)s2)cc1=O)(C(=O)NO)S(C)(=O)=O` (stereo not drawn) [Example 149, 4-[4-(5-cyano-2-thienyl)-2-oxopyridin-1(2H)-yl]-N-hydroxy-2-methyl-2-(methylsulfonyl)butanamide], in assay [1], the PA-7 (MIC) was 16 µg/mL. This compound also showed an EC-1 (MIC) in assay [2] of 16 µg/mL.
`CC(CCn1ccc(-c2cc(Cl)ccc2F)cc1=O)(C(=O)NO)S(C)(=O)=O` (stereo not drawn) [Example 150, 4-[4-(5-chloro-2-fluorophenyl)-2-oxopyridin-1(2H)-yl]-N-hydroxy-2-methyl-2-(methylsulfonyl)butanamide] had a PA-7 (MIC) in assay [1] of 4 µg/mL. In assay [2], this compound registered an EC-1 (MIC) of 4 µg/mL.
In the case of `Cc1ccc(-c2ccn(CCC(C)(C(=O)NO)S(C)(=O)=O)c(=O)c2)cc1F` (stereo not drawn) [Example 151, 4-[4-(3-fluoro-4-methylphenyl)-2-oxopyridin-1(2H)-yl]-N-hydroxy-2-methyl-2-(methylsulfonyl)butanamide], the PA-7 (MIC) in assay [1] was determined as 2 µg/mL. In addition, the EC-1 (MIC) in assay [2] was 2 µg/mL.
`CCCn1cc(-c2ccn(CCC(C)(C(=O)NO)S(C)(=O)=O)c(=O)c2)cn1` (stereo not drawn) [Example 152, N-hydroxy-2-methyl-2-(methylsulfonyl)-4-[2-oxo-4-(1-propyl-1H-pyrazol-4-yl)pyridin-1(2H)-yl]butanamide] gave a PA-7 (MIC) in assay [1] of more than 64 µg/mL. In assay [2], this compound yielded an EC-1 (MIC) of more than 64 µg/mL.
As to `Cc1c(F)cccc1-c1ccn(CCC(C)(C(=O)NO)S(C)(=O)=O)c(=O)c1` (stereo not drawn) [Example 153, 4-[4-(3-fluoro-2-methylphenyl)-2-oxopyridin-1(2H)-yl]-N-hydroxy-2-methyl-2-(methylsulfonyl)butanamide], the PA-7 (MIC) in assay [1] turned out to be 8 µg/mL. In assay [2], this compound had an EC-1 (MIC) of 32 µg/mL.
Turning to `CC(C)(C)NC(=O)c1cncc(-c2ccn(CCC(C)(C(=O)NO)S(C)(=O)=O)c(=O)c2)c1` (stereo not drawn) [Example 154, N-tert-butyl-1′-[4-(hydroxyamino)-3-methyl-3-(methylsulfonyl)-4-oxobutyl]-2′-oxo-1′,2′-dihydro-3,4′-bipyridine-5-carboxamide], the PA-7 (MIC) in assay [1] was more than 64 µg/mL. This compound returned an EC-1 (MIC) in assay [2] of more than 64 µg/mL.
The compound `CC(CCn1ccc(-c2ccc(F)cc2Cl)cc1=O)(C(=O)NO)S(C)(=O)=O` (stereo not drawn) [Example 155, 4-[4-(2-chloro-4-fluorophenyl)-2-oxopyridin-1(2H)-yl]-N-hydroxy-2-methyl-2-(methylsulfonyl)butanamide] returned a PA-7 (MIC) in assay [1] of 0.5 µg/mL. Moreover, in assay [2], the EC-1 (MIC) was 4 µg/mL.
For `CC(CCn1ccc(-c2ccc(Oc3ccccc3)cc2)cc1=O)(C(=O)NO)S(C)(=O)=O` (stereo not drawn) [Example 156, N-hydroxy-2-methyl-2-(methylsulfonyl)-4-[2-oxo-4-(4-phenoxyphenyl)pyridin-1(2H)-yl]butanamide] the same measures were 4 µg/mL and less than 0.06 µg/mL.
`CC(CCn1ccc(-c2cccc(F)c2Cl)cc1=O)(C(=O)NO)S(C)(=O)=O` (stereo not drawn) [Example 157, 4-[4-(2-chloro-3-fluorophenyl)-2-oxopyridin-1(2H)-yl]-N-hydroxy-2-methyl-2-(methylsulfonyl)butanamide] returned a PA-7 (MIC) in assay [1] of 2 µg/mL. This compound also had an EC-1 (MIC) in assay [2] of 4 µg/mL.
In assay [1], `Cc1ccc(-c2ccn(CCC(C)(C(=O)NO)S(C)(=O)=O)c(=O)c2)o1` (stereo not drawn) [Example 158] displayed a PA-7 (MIC) of 64 µg/mL. In addition, the EC-1 (MIC) in assay [2] was determined as 64 µg/mL.
